Experiments:
adult subjects with TRD = conditions: human, in vivo, other: intranasal
Description: The CADSS is an instrument for the measurement of present-state dissociative symptoms, and was administered to assess treatment-emergent dissociative symptoms. The CADSS consists of 23 subjective items, divided into 3 components: Depersonalization (Items 3 to 7, 20, and 23), derealization (Items 1, 2, 8 to 13, 16 to 19, and 21) and amnesia (Items 14, 15, and 22). Participant's responses were coded on a 5-point scale (0=not at all through to 4=extremely).
The Clinician Administered Dissociative States Scale (CADSS) was measured prior to the start of each dose, at 40 minutes, and 1.5 hours postdose.

[1] = test system: subjects with MDD at imminent risk for suicide; conditions: 84 mg
Excerpt: Among 68 randomized subjects, 66 were included in the safety analysis set (defined as receiving at least one dose of study medication in the double-blind phase). […] All safety subjects (N=66) were included in the intent-to-treat (ITT) analysis set (defined as receiving at least one dose of study medication during the double-blind phase and having both the baseline and the Day 1, 4-hour postdose evaluation for the MADRS total score). Forty-nine subjects were included in the safety (FU) analysis set (defined as all subjects who have at least 1 visit during the follow up phase).

[2] = human, in vivo, other: intranasal

CN[C@]1(c2ccccc2Cl)CCCCC1=O [esketamine, (S)-2-(2-chlorophenyl)-2-(methylamino)cyclohexanone]
CADSS dissociative and perceptual change symptoms resolved by (postdose) (adult subjects with TRD): ≤ 1.5 h | Serious TEAE: Agitation, subjects (%) ([1]; double-blind phase, N = 35): 2.9% | Serious TEAE: Depressive symptom, subjects (%) ([1]; double-blind phase, N = 35): 2.9% | Serious TEAE: Psychiatric disorders, subjects (%) ([1]; double-blind phase, N = 35): 11.4% | Serious TEAE: Suicidal ideation, subjects (%) ([1]; double-blind phase, N = 35): 5.7% | Subjects with 1 or more serious TEAE (%) ([1]; double-blind phase, N = 35): 11.4% | Subjects with TEAE leading to drug withdrawn (%) ([1]; double-blind phase, N = 35): 14.3% | TEAE Acne, subjects (%) ([1]; double-blind phase, N = 35): (5.7%) | TEAE Agitation, subjects (%) ([1]; double-blind phase, N = 35): (8.6%) | TEAE Anxiety, subjects (%) ([1]; double-blind phase, N = 35): (17.1%) | TEAE Blood pressure increased, subjects (%) ([1]; double-blind phase, N = 35): (5.7%) | TEAE Diarrhea, subjects (%) ([1]; double-blind phase, N = 35): (8.6%) | TEAE Diplopia, subjects (%) ([1]; double-blind phase, N = 35): (5.7%) | TEAE Dissociation, subjects (%) ([1]; double-blind phase, N = 35): (31.4%) | TEAE Dizziness postural, subjects (%) ([1]; double-blind phase, N = 35): (5.7%) | TEAE Dizziness, subjects (%) ([1]; double-blind phase, N = 35): (34.3%) | TEAE Dry mouth, subjects (%) ([1]; double-blind phase, N = 35): (8.6%) | TEAE Dysgeusia, subjects (%) ([1]; double-blind phase, N = 35): (31.4%) | TEAE Ear and labyrinth disorders, subjects (%) ([1]; double-blind phase, N = 35): (25.7%) | TEAE Euphoric mood, subjects (%) ([1]; double-blind phase, N = 35): (11.4%) | TEAE Eye disorders, subjects (%) ([1]; double-blind phase, N = 35): (20.0%) | TEAE Fatigue, subjects (%) ([1]; double-blind phase, N = 35): (5.7%) | TEAE Feeling abnormal, subjects (%) ([1]; double-blind phase, N = 35): (8.6%) | TEAE Feeling cold, subjects (%) ([1]; double-blind phase, N = 35): (5.7%) | TEAE Flatulence, subjects (%) ([1]; double-blind phase, N = 35): (2.9%) | TEAE Gastrointestinal disorders, subjects (%) ([1]; double-blind phase, N = 35): (54.3%) | TEAE General disorders and administration site conditions, subjects (%) ([1]; double-blind phase, N = 35): (28.6%) | TEAE Headache, subjects (%) ([1]; double-blind phase, N = 35): (31.4%) | TEAE Hyperacusis, subjects (%) ([1]; double-blind phase, N = 35): (5.7%) | TEAE Hyperhidrosis, subjects (%) ([1]; double-blind phase, N = 35): (5.7%) | TEAE Hypoesthesia oral, subjects (%) ([1]; double-blind phase, N = 35): (5.7%) | TEAE Hypoesthesia, subjects (%) ([1]; double-blind phase, N = 35): (8.6%) | TEAE Infections and infestations, subjects (%) ([1]; double-blind phase, N = 35): (2.9%) | TEAE Insomnia, subjects (%) ([1]; double-blind phase, N = 35): (8.6%) | TEAE Investigations, subjects (%) ([1]; double-blind phase, N = 35): (14.3%) | TEAE Nasal congestion, subjects (%) ([1]; double-blind phase, N = 35): (2.9%) | TEAE Nasal discomfort, subjects (%) ([1]; double-blind phase, N = 35): (8.6%) | TEAE Nausea, subjects (%) ([1]; double-blind phase, N = 35): (37.1%) | TEAE Nervous system disorders, subjects (%) ([1]; double-blind phase, N = 35): (71.4%) | TEAE Oropharyngeal pain, subjects (%) ([1]; double-blind phase, N = 35): (5.7%) | TEAE Paresthesia oral, subjects (%) ([1]; double-blind phase, N = 35): (5.7%) | TEAE Paresthesia, subjects (%) ([1]; double-blind phase, N = 35): (17.1%) | TEAE Pharyngeal hypoesthesia, subjects (%) ([1]; double-blind phase, N = 35): (5.7%) | TEAE Psychiatric disorders, subjects (%) ([1]; double-blind phase, N = 35): (57.1%) | TEAE Rash, subjects (%) ([1]; double-blind phase, N = 35): (2.9%) | TEAE Renal and urinary disorders, subjects (%) ([1]; double-blind phase, N = 35): (2.9%) | TEAE Respiratory, thoracic and mediastinal disorders, subjects (%) ([1]; double-blind phase, N = 35): (25.7%) | TEAE Sedation, subjects (%) ([1]; double-blind phase, N = 35): (17.1%) | TEAE Skin and subcutaneous tissue disorders, subjects (%) ([1]; double-blind phase, N = 35): (14.3%) | TEAE Somnolence, subjects (%) ([1]; double-blind phase, N = 35): (11.4%) | TEAE Suicidal ideation, subjects (%) ([1]; double-blind phase, N = 35): (5.7%) | TEAE Throat irritation, subjects (%) ([1]; double-blind phase, N = 35): (8.6%) | TEAE Tinnitus, subjects (%) ([1]; double-blind phase, N = 35): (5.7%) | TEAE Vertigo, subjects (%) ([1]; double-blind phase, N = 35): (11.4%) | TEAE Vision blurred, subjects (%) ([1]; double-blind phase, N = 35): (8.6%) | TEAE Vomiting, subjects (%) ([1]; double-blind phase, N = 35): (20.0%) | TEAE Weight increased, subjects (%) ([1]; double-blind phase, N = 35): (5.7%) | TEAE leading to study discontinuation: Aggression, subjects (%) ([1]; double-blind phase, N = 35): 2.9% | TEAE leading to study discontinuation: Agitation, subjects (%) ([1]; double-blind phase, N = 35): 2.9% | TEAE leading to study discontinuation: Cardiac disorders, subjects (%) ([1]; double-blind phase, N = 35): 2.9% | TEAE leading to study discontinuation: Dizziness, subjects (%) ([1]; double-blind phase, N = 35): 2.9% | TEAE leading to study discontinuation: Dysgeusia, subjects (%) ([1]; double-blind phase, N = 35): 2.9% | TEAE leading to study discontinuation: Dyspnea, subjects (%) ([1]; double-blind phase, N = 35): 2.9% | TEAE leading to study discontinuation: Gastrointestinal disorders, subjects (%) ([1]; double-blind phase, N = 35): 2.9% | TEAE leading to study discontinuation: Nausea, subjects (%) ([1]; double-blind phase, N = 35): 2.9% | TEAE leading to study discontinuation: Nervous system disorders, subjects (%) ([1]; double-blind phase, N = 35): 5.7% | TEAE leading to study discontinuation: Psychiatric disorders, subjects (%) ([1]; double-blind phase, N = 35): 5.7% | TEAE leading to study discontinuation: Respiratory, thoracic and mediastinal disorders, subjects (%) ([1]; double-blind phase, N = 35): 2.9% | TEAE leading to study discontinuation: Ventricular extrasystoles, subjects (%) ([1]; double-blind phase, N = 35): 2.9% | Total no. subjects with TEAE leading to study discontinuation (%) ([1]; double-blind phase, N = 35): 14.3% | Subjects with possibly related TEAE (%) ([1]; double-blind phase, N = 35, possible, probable, very likely): 82.9% | AE Abdominal pain, subjects (%) ([1]; follow up phase, N = 27): (3.7%) | AE Abdominal tenderness, subjects (%) ([1]; follow up phase, N = 27): (3.7%) | AE Back pain, subjects (%) ([1]; follow up phase, N = 27): (3.7%) | AE Cogwheel rigidity, subjects (%) ([1]; follow up phase, N = 27): (3.7%) | AE Contusion, subjects (%) ([1]; follow up phase, N = 27): (3.7%) | AE Depression, subjects (%) ([1]; follow up phase, N = 27): (3.7%) | AE Diarrhea, subjects (%) ([1]; follow up phase, N = 27): (3.7%) | AE Dizziness, subjects (%) ([1]; follow up phase, N = 27): (3.7%) | AE Dry mouth, subjects (%) ([1]; follow up phase, N = 27): (7.4%) | AE Dysgeusia, subjects (%) ([1]; follow up phase, N = 27): (3.7%) | AE Ear infection, subjects (%) ([1]; follow up phase, N = 27): (3.7%) | AE Epistaxis, subjects (%) ([1]; follow up phase, N = 27): (3.7%) | AE Flank pain, subjects (%) ([1]; follow up phase, N = 27): (3.7%) | AE Gastrointestinal disorders, subjects (%) ([1]; follow up phase, N = 27): (22.2%) | AE Headache, subjects (%) ([1]; follow up phase, N = 27): (7.4%) | AE Infections and infestations, subjects (%) ([1]; follow up phase, N = 27): (11.1%) | AE Injury, poisoning and procedural complications, subjects (%) ([1]; follow up phase, N = 27): (7.4%) | AE Insomnia, subjects (%) ([1]; follow up phase, N = 27): (11.1%) | AE Intentional self-injury, subjects (%) ([1]; follow up phase, N = 27): (3.7%) | AE Loss of consciousness, subjects (%) ([1]; follow up phase, N = 27): (3.7%) | AE Migraine, subjects (%) ([1]; follow up phase, N = 27): (3.7%) | AE Musculoskeletal and connective tissue disorders, subjects (%) ([1]; follow up phase, N = 27): (7.4%) | AE Musculoskeletal chest pain, subjects (%) ([1]; follow up phase, N = 27): (3.7%) | AE Musculoskeletal pain, subjects (%) ([1]; follow up phase, N = 27): (3.7%) | AE Nasal congestion, subjects (%) ([1]; follow up phase, N = 27): (3.7%) | AE Nasopharyngitis, subjects (%) ([1]; follow up phase, N = 27): (3.7%) | AE Neck pain, subjects (%) ([1]; follow up phase, N = 27): (3.7%) | AE Nervous system disorders, subjects (%) ([1]; follow up phase, N = 27): (22.2%) | AE Night sweats, subjects (%) ([1]; follow up phase, N = 27): (3.7%) | AE Pelvic pain, subjects (%) ([1]; follow up phase, N = 27): (3.7%) | AE Pharyngitis, subjects (%) ([1]; follow up phase, N = 27): (7.4%) | AE Psychiatric disorders, subjects (%) ([1]; follow up phase, N = 27): (18.5%) | AE Reproductive system and breast disorders, subjects (%) ([1]; follow up phase, N = 27): (3.7%) | AE Respiratory, thoracic and mediastinal disorders, subjects (%) ([1]; follow up phase, N = 27): (7.4%) | AE Restlessness, subjects (%) ([1]; follow up phase, N = 27): (3.7%) | AE Road traffic accident, subjects (%) ([1]; follow up phase, N = 27): (3.7%) | AE Sedation, subjects (%) ([1]; follow up phase, N = 27): (3.7%) | AE Skin and subcutaneous tissue disorders, subjects (%) ([1]; follow up phase, N = 27): (3.7%) | AE Suicidal ideation, subjects (%) ([1]; follow up phase, N = 27): (3.7%) | AE Tremor, subjects (%) ([1]; follow up phase, N = 27): (7.4%) | AE Upper respiratory tract infection, subjects (%) ([1]; follow up phase, N = 27): (3.7%) | AE Vomiting, subjects (%) ([1]; follow up phase, N = 27): (3.7%) | AE Vulvovaginal mycotic infection, subjects (%) ([1]; follow up phase, N = 27): (3.7%) | Serious AE: Psychiatric disorders, subjects (%) ([1]; follow up phase, N = 27): 3.7% | Serious AE: Suicidal ideation, subjects (%) ([1]; follow up phase, N = 27): 3.7% | Total no. subjects with a serious adverse event (%) ([1]; follow up phase, N = 27): 3.7% | Total no. subjects with adverse events (%) ([1]; follow up phase, N = 27): (48.1%) | Subjects who discontinued from the double-blind phase due to adverse events [1, 2]: 5 subjects | Subjects with at least one TEAE [1, 2]: 94.3% | Subjects with at least one adverse event [1, 2]: 48.1% | TEAE dissociation, % of subjects [1, 2]: 31.4% | TEAE dizziness, % of subjects [1, 2]: 34.3% | TEAE dysgeusia, % of subjects [1, 2]: 31.4% | TEAE headache, % of subjects [1, 2]: 31.4% | TEAE nausea, % of subjects [1, 2]: 37.1% | TEAE vomiting, % of subjects [1, 2]: 20.0% | Subjects with a serious adverse event ([1]; human, in vivo, other: intranasal, 56 day): 1

From patent US20230121313A1 (priority 2019, published 2023)
